Assay results: patent publication EP4759814A1, “TRICYCLIC COMPOUND AND USE THEREOF AS MAT2A INHIBITOR” (SK Biopharmaceuticals Co., Ltd., priority 2023, dated 2025)
pIC50: −log10 of the molar value.

Molecular target: T1, MAT2A (Homo sapiens, UniProt P31153)
T1 construct: purchased BPS Bioscience (USA) 71401
Assay: MAT2A inhibitory activity, colorimetric phosphate detection (PiColorLock) enzyme assay
Format: biochemical
Conditions: Test Condition 1 or 2 (not stated which per compound); absorbance at 630 nm
Experimental: In vitro assay: Methionine and adenosine triphosphate (ATP) are converted into S-adenosylmethionine (SAM) and inorganic phosphate (pi) via the catalytic action of methionine adenosyltransferase 2A (MAT2A). The produced pi is detected by the PiColorLock™ Phosphate Detection Reagent, which is a colorimetric assay, and the activity of MAT2A can be evaluated according to the amount of pi generated during the enzyme reaction. Each compound was evaluated under Test Condition 1 or 2 as described below.
• Concentration of MAT2A inhibitor: maximum concentration of 50 µM, 5-fold dilution (7 groups in total) • MAT2A concentration: 12 ng/µL • ATP and Met concentration: 100 µM, 80 µM
• Concentration of MAT2A inhibitor: maximum concentration of 1 µM, 3-fold dilution (7 groups in total) • MAT2A concentration: 4 ng/µL • ATP and Met concentration: 300 µM, 150 µM • Reagents: Methionine (catalog number M5308) and ATP (catalog number A2383) were purchased from Sigma-Aldrich (USA). MAT2A (catalog number 71401) was purchased from BPS Bioscience (USA), and PiColorLock™ Phosphate Detection Reagent (catalog number 303-0030) was purchased from Novus (USA).
Assay buffer composition: 50 mM Tris-HCl pH 8.0, 50 mM KCI, 15 mM MgCl2, 0.3 mM EDTA, 0.005 % (w/v) BSA
Experimental procedure: Each compound was diluted 5-fold or 3-fold based on the maximum concentration (5 mM or 1 mM or 0.1 mM) using DMSO. The diluted compounds were diluted 20-fold using assay buffer, and then mixed at a volume ratio of 1:2 with MAT2A (30 ng/µL or 10 ng/µL) diluted with assay buffer and treated for 30 minutes at room temperature. The negative control group is a group untreated with both the MAT2A enzyme and the compound according to an embodiment of the present application, and the positive control group is a group treated only with the MAT2A enzyme and untreated with the compound according to an embodiment of the present application.
In each well of a 384-well plate, 30 µL of the mixed solution and 20 µL of a 1:1 mixed solution of ATP (0.5 mM or 1.5 mM) and Met (0.4 mM or 0.75 mM) were mixed and then treated for 1 hour at room temperature. After the enzyme reaction, 13 µL of a 100:1 mixed solution of PiColorLockTM and Accelerator was treated in each well and reacted for 5 minutes at room temperature. After treating 5 µL of Stabilizer in each well and reacting for 25 minutes at room temperature, the absorbance at 630 nm was measured using SpectraMax M4 (Molecular Devices, USA) to calculate the IC50 value of the compound.
Analysis method: The enzyme activity (%) of each experimental group was calculated as {(average O.D. of compound-treated group - average O.D. of negative control group)/(average O.D. of positive control group - average O.D. of negative control group)} * 100. After preparing a dose-response curve (4-parameter) using the enzyme activity according to the treatment concentration of each compound in GraphPad Prism 9, the 50 % of enzyme inhibitory activity value (IC50) was calculated through non-linear regression analysis. The IC50 results measured for the MAT2A activity inhibitory ability of the compounds according to an embodiment of the present application are shown in Table 2 (+++: more than 1 to 100 nM, ++: more than 100 to 1,000 nM, +: more than 1,000 to 10,000 nM, -: more than 10,000 nM).

T1 sequence (P31153 whole entry): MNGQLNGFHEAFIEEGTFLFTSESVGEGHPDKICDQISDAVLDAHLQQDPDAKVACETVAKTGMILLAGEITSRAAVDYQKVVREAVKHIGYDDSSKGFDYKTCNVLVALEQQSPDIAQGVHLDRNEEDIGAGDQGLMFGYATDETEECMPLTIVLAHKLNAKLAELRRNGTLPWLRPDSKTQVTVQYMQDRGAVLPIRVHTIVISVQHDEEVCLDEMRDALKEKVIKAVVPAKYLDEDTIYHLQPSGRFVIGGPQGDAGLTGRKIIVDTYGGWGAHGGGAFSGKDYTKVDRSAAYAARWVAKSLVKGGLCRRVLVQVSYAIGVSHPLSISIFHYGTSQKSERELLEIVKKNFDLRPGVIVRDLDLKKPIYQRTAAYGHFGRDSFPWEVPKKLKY

| Compound | pIC50 |
| --- | --- |
| Cc1ncccc1-n1c(=O)c2nccn2c2cc(Cl)c(Br)cc21 (atropisomer, axis not shown; (Ra)) [Example 80, (Ra)-7-bromo-8-chloro-5-(2-methylpyridin-3-yl)imidazo[1,2-a]quinoxalin-4(5H)-one] | < 5.00 |
| Cc1cc2c(cc1C(F)(F)F)n(-c1cccnc1C)c(=O)c1nccn12 (atropisomer, axis not shown; (Ra)) [Example 94, (Ra)-8-methyl-5-(2-methylpyridin-3-yl)-7-(trifluoromethyl)imidazo[1,2-a]quinoxalin4(5H)-one] | < 5.00 |
| Cc1ncccc1-n1c(=O)c2nccn2c2cc(Cl)c(C(F)(F)F)cc21 (atropisomer, axis not shown; (Ra)) [Example 97, (Ra)-8-chloro-5-(2-methylpyridin-3-yl)-7-(trifluoromethyl)imidazo[1,2-a]quinoxalin-4(5H)-one] | < 5.00 |
| CCc1ncccc1-n1c(=O)c2nccn2c2cc(Cl)c(C(F)(F)F)cc21 (atropisomer, axis not shown; (Ra)) [Example 111, (Ra)-8-chloro-5-(2-ethylpyridin-3-yl)-7-(trifluoromethyl)imidazo[1,2-a]quinoxalin-4(5H)-one] | < 5.00 |
| O=c1c2nccn2c2ccc(Cl)cc2n1-c1ccccc1F [Example 12, 7-chloro-5-(2-fluorophenyl)imidazo[1,2-a]quinoxalin-4(5H)-one] | < 5.00 |
| Cc1c(F)cccc1-n1c(=O)c2nccn2c2ccc(OCC(F)(F)F)cc21 [Example 29, 5-(3-fluoro-2-methylphenyl)-7-(2,2,2-trifluoroethoxy)imidazo[1,2-a]quinoxalin-4(5H)-one] | < 5.00 |
| CCOc1ccc2c(c1)n(-c1cccc(F)c1C)c(=O)c1nccn12 [Example 31, 7-ethoxy-5-(3-fluoro-2-methylphenyl)imidazo[1,2-a]quinoxalin-4(5H)-one] | < 5.00 |
| Cc1ccccc1-n1c(=O)c2nccn2c2ccc(F)cc21 [Example 41, 7-fluoro-5-(o-tolyl)imidazo[1,2-a]quinoxalin-4(5H)-one] | 5.00 to 6.00 |
| Cc1ccccc1-n1c(=O)c2nccn2c2cnc(Cl)cc21 [Example 42, 3-chloro-5-(o-tolyl)imidazo[1,2-a]pyrido[4,3-e]pyrazin-6(5H)-one] | < 5.00 |
| N#Cc1ccccc1-n1c(=O)c2nccn2c2ccc(Cl)cc21 [Example 43, 2-(7-chloro-4-oxoimidazo[1,2-a]quinoxalin-5(4H)-yl)benzonitrile] | < 5.00 |
| CS(=O)(=O)Nc1cccc(-n2c(=O)c3nccn3c3ccc(Cl)cc32)c1 [Example 44, N-(3-(7-chloro-4-oxoimidazo[1,2-a]quinoxalin-5(4H)-yl)phenyl)methanesulfonamide] | 7.00 to 9.00 |
| Cc1ccccc1-n1c(=O)c2nccn2c2ccc(C(C)C)nc21 [Example 47, 7-isopropyl-5-(o-tolyl)imidazo[1,2-a]pyrido[2,3-e]pyrazin-4(5H)-one] | < 5.00 |
| Cc1nccnc1-n1c(=O)c2nccn2c2ccc(Cl)cc21 [Example 48, 7-chloro-5-(3-methylpyrazin-2-yl)imidazo[1,2-a]quinoxalin-4(5H)-one] | 6.00 to 7.00 |
| O=c1c2nccn2c2ccc(Cl)cc2n1-c1ccccc1OC(F)(F)F [Example 50, 7-chloro-5-(2-(trifluoromethoxy)phenyl)imidazo[1,2-a]quinoxalin-4(5H)-one] | 5.00 to 6.00 |
| Cc1cccc(C)c1-n1c(=O)c2nccn2c2ccc(Cl)cc21 [Example 51, 7-chloro-5-(2,6-dimethylphenyl)imidazo[1,2-a]quinoxalin-4(5H)-one] | < 5.00 |
| Cc1cccnc1-n1c(=O)c2nccn2c2ccc(Cl)cc21 [Example 53, 7-chloro-5-(3-methylpyridin-2-yl)imidazo[1,2-a]quinoxalin-4(5H)-one] | < 5.00 |
| CC(=O)c1cnc2c(=O)n(-c3cccnc3C)c3cc(C(F)(F)F)ccc3n12 [Example 59, 1-acetyl-5-(2-methylpyridin-3-yl)-7-(trifluoromethyl)imidazo[1,2-a]quinoxalin-4(5H)-one] | 5.00 to 6.00 |
| Cc1ncccc1-n1c(=O)c2nc(CN3CCN(C)CC3)cn2c2ccc(Cl)cc21 [Example 61, 7-chloro-2-((4-methylpiperazin-1-yl)methyl)-5-(2-methylpyridin-3-yl)imidazo[1,2-a]quinoxalin-4(5H)-one] | < 5.00 |
| Cc1ncccc1-n1c(=O)c2nc(CN3CCOCC3)cn2c2ccc(Cl)cc21 [Example 62, 7-chloro-5-(2-methylpyridin-3-yl)-2-(morpholinomethyl)imidazo[1,2-a]quinoxalin-4(5H)-one] | 6.00 to 7.00 |
| Cc1ncccc1-n1c(=O)c2nc(CN3CCC4(CC3)COC4)cn2c2ccc(Cl)cc21 [Example 63, 2-((2-oxa-7-azaspiro[3.5]nonane-7-yl)methyl)-7-chloro-5-(2-methylpyridin-3-yl)imidazo[1,2-a]quinoxalin-4(5H)-one] | < 5.00 |
| COCCNCc1cn2c(n1)c(=O)n(-c1cccnc1C)c1cc(Cl)ccc12 [Example 64, 7-chloro-2-(((2-methoxyethyl)amino)methyl)-5-(2-methylpyridin-3-yl)imidazo[1,2-a]quinoxalin-4(5H)-one] | 6.00 to 7.00 |
| Cc1ccccc1-n1c(=O)c2nccn2c2cc(Br)c(Cl)cc21 [Example 72, 8-bromo-7-chloro-5-(o-tolyl)imidazo[1,2-a]quinoxalin-4(5H)-one] | 5.00 to 6.00 |
| Cc1ncccc1-n1c(=O)c2nccn2c2cc(C(F)(F)F)c(Br)cc21 [Example 76, 7-bromo-5-(2-methylpyridin-3-yl)-8-(trifluoromethyl)imidazo[1,2-a]quinoxalin-4(5H)-one] | < 5.00 |
| Cc1ncccc1-n1c(=O)c2nccn2c2cc(C(F)F)c(Br)cc21 [Example 82, 7-bromo-8-(difluoromethyl)-5-(2-methylpyridin-3-yl)imidazo[1,2-a]quinoxalin-4(5H)-one] | < 5.00 |
| Cn1nccc1-n1c(=O)c2nccn2c2cc(Cl)c(Br)cc21 [Example 83, 7-bromo-8-chloro-5-(1-methyl-1H-pyrazol-5-yl)imidazo[1,2-a]quinoxalin-4(5H)-one] | 5.00 to 6.00 |
| Cc1cc2c(cc1Br)n(-c1cccnc1O)c(=O)c1nccn12 [Example 90, 7-bromo-5-(2-hydroxypyridin-3-yl)-8-methylimidazo[1,2-a]quinoxalin-4(5H)-one] | < 5.00 |
| Cc1ncccc1-n1c(=O)c2nccn2c2c(N3CCCC3)cc(Cl)cc21 [Example 104, 7-chloro-5-(2-methylpyridin-3-yl)-9-(pyrrolidine-1-yl)imidazo[1,2-a]quinoxalin-4(5H)-one] | < 5.00 |
| Cc1ncccc1-n1c(=O)c2nccn2c2c(N(C)C)cc(Cl)cc21 [Example 106, 7-chloro-9-(dimethylamino)-5-(2-methylpyridin-3-yl)imidazo[1,2-a]quinoxalin-4(5H)-one] | < 5.00 |
| Cc1ncccc1-n1c(=O)c2nccn2c2c(OC(F)F)cc(C(F)(F)F)cc21 [Example 115, 9-(difluoromethoxy)-5-(2-methylpyridin-3-yl)-7-(trifluoromethyl)imidazo[1,2-a]quinoxalin-4(5H)-one] | 6.00 to 7.00 |
| Cc1ncccc1-n1c(=O)c2nccn2c2c(OCC(F)(F)F)cc(C(F)(F)F)cc21 [Example 117, 5-(2-methylpyridin-3-yl)-9-(2,2,2-trifluoroethoxy)-7-(trifluoromethyl)imidazo[1,2-a]quinoxalin-4(5H)-one] | 7.00 to 9.00 |
